Columns and labels:
HDAC8 = HDAC8 (Homo sapiens (Human), UniProt Q9BY41); conditions: read-out: HDAC8 IC50
HDAC1 = HDAC1 (Homo sapiens (Human), UniProt Q13547); conditions: read-out: HDAC1 IC50
HDAC1, sequence (Q13547 whole entry): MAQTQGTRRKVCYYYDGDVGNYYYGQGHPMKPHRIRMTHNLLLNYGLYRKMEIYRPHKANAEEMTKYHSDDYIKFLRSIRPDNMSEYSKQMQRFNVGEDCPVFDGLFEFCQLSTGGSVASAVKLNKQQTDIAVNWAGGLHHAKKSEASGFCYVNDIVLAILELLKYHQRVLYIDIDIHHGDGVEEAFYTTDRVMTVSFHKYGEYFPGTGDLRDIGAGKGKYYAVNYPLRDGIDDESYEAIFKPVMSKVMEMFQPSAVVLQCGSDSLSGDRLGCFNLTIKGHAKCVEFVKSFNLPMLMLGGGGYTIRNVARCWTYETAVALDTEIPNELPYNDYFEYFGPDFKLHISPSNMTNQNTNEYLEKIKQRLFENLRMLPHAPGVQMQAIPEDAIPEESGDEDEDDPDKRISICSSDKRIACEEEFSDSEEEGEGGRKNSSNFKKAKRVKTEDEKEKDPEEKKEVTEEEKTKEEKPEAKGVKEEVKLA

HDAC8, sequence (Q9BY41 whole entry): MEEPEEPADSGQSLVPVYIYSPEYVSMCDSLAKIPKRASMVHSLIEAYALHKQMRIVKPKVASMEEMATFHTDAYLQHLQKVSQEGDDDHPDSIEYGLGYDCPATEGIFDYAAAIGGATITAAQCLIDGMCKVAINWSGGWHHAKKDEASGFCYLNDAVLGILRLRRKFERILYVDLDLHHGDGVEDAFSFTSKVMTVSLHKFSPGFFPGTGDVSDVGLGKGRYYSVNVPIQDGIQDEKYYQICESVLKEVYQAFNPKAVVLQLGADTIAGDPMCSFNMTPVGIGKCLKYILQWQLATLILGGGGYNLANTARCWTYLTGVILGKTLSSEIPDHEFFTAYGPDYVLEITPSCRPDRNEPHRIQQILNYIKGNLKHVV

Structure (SMILES)	IC50 (HDAC8) [nM]	IC50 (HDAC1) [nM]
Cn1ccc(CN(Cc2ccc(-c3noc(C(F)(F)F)n3)cc2)c2cccc(C(F)(F)F)c2)n1 [Example 96, N-((1-methyl-1H-pyrazol-3-yl)methyl)-3-(trifluoromethyl)-N-(4-(5-(trifluoromethyl)-1,2,4-oxadiazol-3-yl)benzyl)aniline]	30000	2400
CC(C)NC(=O)c1ccccc1NCc1ccc(-c2noc(C(F)(F)F)n2)cn1 [Example 443, N-(1-methylethyl)-2-[({5-[5-(trifluoromethyl)-1,2,4-oxadiazol-3-yl]pyridin-2-yl}methyl)amino]benzamide]	1400	1200
O=C1N(CC2CCOCC2)CC(c2ccccc2)N1c1ccc(-c2noc(C(F)(F)F)n2)cc1 (racemic) [Example 422, 4-phenyl-1-(tetrahydro-2H-pyran-4-ylmethyl)-3-{4-[5-(trifluoromethyl)-1,2,4-oxadiazol-3-yl]phenyl}imidazolidin-2-one]	4000	3400
CC(C)(C)OC(=O)N(Cc1ccc(-c2noc(C(F)(F)F)n2)cn1)c1cccc(F)c1 [Example 91, tert-butyl (3-fluorophenyl)((5-(5-(trifluoromethyl)-1,2,4-oxadiazol-3-yl)pyridin-2-yl)methyl)carbamate]	19000	1300
Cc1nc2c(c(=O)[nH]1)CC(NCc1ccc(-c3noc(C(F)(F)F)n3)cc1)CC2 (racemic) [Example 350, 2-methyl-6-[({4-[5-(trifluoromethyl)-1,2,4-oxadiazol-3-yl]phenyl}methyl)amino]-5,6,7,8-tetrahydroquinazolin-4(3H)-one]	250	1200
Cc1cc(NCc2ccc(-c3noc(C(F)(F)F)n3)cn2)on1 [Example 380, 3-methyl-N-({5-[5-(trifluoromethyl)-1,2,4-oxadiazol-3-yl]pyridin-2-yl}methyl)-1,2-oxazol-5-amine]	1400	930
Cc1ccc(NCc2ccc(-c3noc(C(F)(F)F)n3)cn2)nn1 [Example 362, 6-methyl-N-({5-[5-(trifluoromethyl)-1,2,4-oxadiazol-3-yl]pyridin-2-yl}methyl)pyridazin-3-amine]	2800	1400
O=C1Nc2ccccc2CC1NCc1ccc(-c2noc(C(F)(F)F)n2)cn1 (racemic) [Example 375, 3-[({5-[5-(trifluoromethyl)-1,2,4-oxadiazol-3-yl]pyridin-2-yl}methyl)amino]-3,4-dihydroquinolin-2(1H)-one]	2600	1000
CN1Cc2ccc(NCc3ccc(-c4noc(C(F)(F)F)n4)cn3)cc2C1=O [Example 356, 2-methyl-6-[({5-[5-(trifluoromethyl)-1,2,4-oxadiazol-3-yl]pyridin-2-yl}methyl)amino]-2,3-dihydro-1H-isoindol-1-one]	520	280
Cc1noc([C@@H]2CCC(=O)N2c2ccc(-c3noc(C(F)(F)F)n3)c(F)c2)n1 [Example 333, (5S)-1-{3-fluoro-4-[5-(trifluoromethyl)-1,2,4-oxadiazol-3-yl]phenyl}-5-(3-methyl-1,2,4-oxadiazol-5-yl)pyrrolidin-2-one]	6700	3300
Cn1nc(C(=O)N(Cc2ccc(-c3noc(C(F)(F)F)n3)cc2)c2cccc(C(F)(F)F)c2)ccc1=O [Example 88, 1-methyl-6-oxo-N-(4-(5-(trifluoromethyl)-1,2,4-oxadiazol-3-yl)benzyl)-N-(3-(trifluoromethyl)phenyl)-1,6-dihydropyridazine-3-carboxamide]	3000	940
O=C(C1COCCO1)N(Cc1ccc(-c2noc(C(F)(F)F)n2)cc1)c1cccc(C(F)(F)F)c1 (racemic) [Example 84, N-(4-(5-(trifluoromethyl)-1,2,4-oxadiazol-3-yl)benzyl)-N-(3-(trifluoromethyl)phenyl)-1,4-dioxane-2-carboxamide]	2400	950

Source: US11066396B2 (priority 2016, dated 2021)
